Publication PMC3401626 (Chemmedchem, 2011)

What was measured:
[1] = target: AAC(6′)/APH(2″)-Ia (Staphylococcus aureus, UniProt P0A0C1); experiment: Inhibitors' selectivity: AAC; type: biochemical; conditions: inhibitor 200 to 0.2 μM; enzyme 0.25 μM
[2] = target: T1, Eis (Mycobacterium tuberculosis, UniProt P9WFK7); experiment: Eis inhibition, UV-Vis DTNB assay of aminoglycoside acetylation; type: biochemical; conditions: at least 3 trials
[3] = target: AAC(2′)-Ic (Mycobacterium tuberculosis, UniProt P9WQG9); experiment: Inhibitors' selectivity: AAC; type: biochemical, Mtb; conditions: inhibitor 200 to 0.2 μM
Chain of AAC(2′)-Ic (P9WQG9 whole entry): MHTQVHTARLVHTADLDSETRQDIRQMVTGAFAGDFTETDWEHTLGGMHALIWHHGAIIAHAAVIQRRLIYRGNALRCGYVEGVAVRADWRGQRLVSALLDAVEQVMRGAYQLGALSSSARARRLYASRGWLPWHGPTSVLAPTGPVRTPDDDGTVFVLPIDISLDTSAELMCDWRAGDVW

[4] = cited from earlier work
[5] = target: T2, AAC(3)-IV (Salmonella sp, UniProt P08988); experiment: Inhibitors' selectivity: AAC; type: biochemical, Escherichia coli; conditions: inhibitor 200 to 0.2 μM; enzyme 0.25 μM
T2 sequence (P08988 with tags, fused parts or gaps limits assumed): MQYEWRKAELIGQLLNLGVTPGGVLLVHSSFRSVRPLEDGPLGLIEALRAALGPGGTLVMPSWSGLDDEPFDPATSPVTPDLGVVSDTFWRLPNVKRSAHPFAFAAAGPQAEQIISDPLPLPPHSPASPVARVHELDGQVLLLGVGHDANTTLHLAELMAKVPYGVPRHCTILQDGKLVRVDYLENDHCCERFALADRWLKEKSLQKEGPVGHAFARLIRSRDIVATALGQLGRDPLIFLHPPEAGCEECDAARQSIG

[6] = target: T1, Eis; experiment: Mode of inhibition of Eis; type: biochemical; conditions: for Mode of inhibition against NEO: varying NEO 50-200 μM

T1 sequence (P9WFK7 whole entry): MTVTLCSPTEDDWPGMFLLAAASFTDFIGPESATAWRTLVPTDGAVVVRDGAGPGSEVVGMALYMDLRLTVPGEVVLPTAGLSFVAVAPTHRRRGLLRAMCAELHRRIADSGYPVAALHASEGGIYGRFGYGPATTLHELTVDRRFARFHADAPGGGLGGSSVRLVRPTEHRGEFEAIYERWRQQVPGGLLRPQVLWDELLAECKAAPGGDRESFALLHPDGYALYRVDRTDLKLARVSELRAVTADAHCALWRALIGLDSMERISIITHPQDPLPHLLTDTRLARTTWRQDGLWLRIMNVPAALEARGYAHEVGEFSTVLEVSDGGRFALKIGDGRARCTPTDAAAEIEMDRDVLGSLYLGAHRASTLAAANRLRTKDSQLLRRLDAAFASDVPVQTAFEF
Chain of AAC(6′)/APH(2″)-Ia (P0A0C1 whole entry): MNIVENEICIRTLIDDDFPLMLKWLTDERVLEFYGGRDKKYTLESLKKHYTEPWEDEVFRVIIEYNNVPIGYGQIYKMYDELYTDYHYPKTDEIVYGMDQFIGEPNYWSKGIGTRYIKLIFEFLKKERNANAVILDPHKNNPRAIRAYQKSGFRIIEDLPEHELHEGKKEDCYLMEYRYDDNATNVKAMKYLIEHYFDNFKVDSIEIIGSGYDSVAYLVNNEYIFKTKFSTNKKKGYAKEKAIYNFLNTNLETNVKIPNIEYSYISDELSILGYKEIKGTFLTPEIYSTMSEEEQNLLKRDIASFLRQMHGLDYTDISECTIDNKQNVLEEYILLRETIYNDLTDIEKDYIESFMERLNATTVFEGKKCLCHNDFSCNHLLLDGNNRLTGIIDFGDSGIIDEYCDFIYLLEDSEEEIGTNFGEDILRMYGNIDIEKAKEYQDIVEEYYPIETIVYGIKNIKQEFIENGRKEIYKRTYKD

## [H]/N=C(\N/C(=N/[H])NCCCCCCNC(=N)NC(=N)Nc1ccc(Cl)cc1)Nc1ccc(Cl)cc1 [Compound 6, chlorhexidine]
[1]
  inhibition of AAC(6′)/APH(2″): no significant inhibition
[2]; Eis inhibition constants (IC50) using AMK, substrate AMK
  IC50: 321 ± 58 nM
[2]; Eis inhibition constants (IC50) using KAN, substrate KAN
  IC50: 666 ± 193 nM
[3]
  inhibition of AAC(2′)-Ic: no significant inhibition
[4]
  toxic effects on pulmonary tissues: toxic effects on pulmonary tissues
[5]
  inhibition of AAC(3)-IV: no significant inhibition
[6]; substrate AMK, listed as chlorhexidine (6)
  Mode of inhibition against AMK: AG-competitive inhibitor
[6]; substrate KAN, listed as chlorhexidine (6)
  Mode of inhibition against KAN: AG-competitive inhibitor
[6]
  Mode of inhibition against NEO: competitive inhibitor
[6]; listed as chlorhexidine (6)
  Mode of inhibition against NEO: AG-competitive inhibitor
